In patent publication US9796674B2, “Benzyl urea derivatives for activating TGF-beta signaling” (THE BOARD OF TRUSTEES OF THE LELAND STANFORD JUNIOR …, priority 2013, dated 2017):
“Also recorded” adds a separate entry of the source.

Tested on: mouse J774A.1 macrophages
Assay: Fibrillar Aβ clearance by J774A.1 macrophages
Assay type: cell-based
Settings: 24 h, 2, 5, or 10 μM
Procedure: SRI-011381 promotes Aβ clearance in cell culture: TGF-β1 promotes Aβ clearance in a microglia cell line. To test whether SRI-011381 has similar properties, mouse J774A.1 macrophages and human macrophages differentiated from THP-1 monocytic cell lines were treated with fibrillar Aβ in the absence or presence of compound (2, 5, or 10 μM) for 24 h. Conditioned medium was harvested and the remaining Aβ that was not phagocytosed by macrophages was quantified by Aβ ELISA.
FIGS. 4A and 4B present data from experiments in which human macrophages differentiated from THP-1 monocytic cell lines and mouse J774A.1 macrophages were incubated with fibrillar Aβ in the absence or presence of compound (2 or 5 μM) for 24 h. Conditioned medium was harvested and the remaining Aβ was quantified by Aβ ELISA. The collected medium (FIGS. 4C-4D) was added to N2A-APP-Swe cells (mouse Neuro-2A neuroblastoma cells stably expressing Swedish APP695) and incubated for 24 h. Neurotoxicity was quantified by an MTS Assay.
Mouse J774A.1 macrophages and human macrophages that were differentiated from THP-1 monocytic cell lines were treated with fibrillar Aβ42 in the absence or presence of SRI-011382 or its derivative compounds (2, 5, or 10 μM) for 24 h. Conditioned medium was harvested and the remaining Aβ42 that was not phagocytosed by macrophages was quantified by Aβ42 ELISA kit (Invitrogen). […]

## O=C(NC1CCCCC1)N(Cc1ccccc1)CC1CCNCC1 [SRI-011381, 1-Benzyl-3-cyclohexyl-1-(piperidin-4-ylmethyl)urea]
  fibrillar Aβ clearance: promoted fibrillar Aβ clearance; also recorded: promoted fibrillar Aβ42 clearance
Listed as SRI-11381
  fibrillar Aβ clearance: promote fibrillar Aβ42 clearance
